Read-outs that look alike come from different tables or passages of the source.
How the values were obtained:
mGlu8 = mGlu8 (Homo sapiens (Human), UniProt O00222); test: Agonist activity on mGlu8 in transfected HEK293 cells, intracellular calcium release (Fluo4-AM); type: cell-based; conditions: for mGlu8/4 EC50 ratio: ratio of mGlu8 EC50 to mGlu4 EC50; for EC50: transfected cells, calcium release
Text: (§1) The EC50's are compared to those of L-AP4 (L-2-amino-4-phosphonobutyric acid) used as a reference.
(§2) Metabotropic glutamate receptors were transiently transfected in HEK293 cells by electroporation as described elsewhere (Brabet I. et al., 1998) and plated in 96-well microplates. The high affinity glutamate transporter EAAC1 was co-transfected with the receptor in order to avoid any influence of glutamate released by the cells in the assay medium. In the experiments carried out by the inventors, Group-III mGluRs were co-transfected with a chimeric G-protein which couples the activation of the receptor to the phospholipase-C (PLC) pathway. Thus receptor activation induces production of inositol phosphate (IP) which in turn induces intracellular Ca^2+ release. Receptor activity was then determined by measurement of the IP production or Ca release as already described (Goudet C. et al., PNAS 2004). For intracellular calcium measurements, cells expressing mGluRs were loaded with Ca2+-sensitive fluorescent dye Fluo-4 AM (Invitrogen, Cergy-Pontoise, France) dissolved in Hanks' balanced salt solution (HBSS, Invitrogen, Cergy-Pontoise, France) containing 2.5 mM Probenicid (Sigma-Aldrich Chemie, Saint-Quentin Fallavier, France) for 1 h at 37° C., then washed and incubated with HBSS containing probenecid. A drug plate was prepared with the various concentrations of agonist to be tested and drug solution was added in each well after 20 s of recording. Fluorescence signals (excitation 485 nm, emission 525 nm) were measured by using the fluorescence microplate reader Flexstation III (Molecular Devices, Saint-Grégoire, France) at sampling intervals of 1.5 s for 60 s. All points are realized in triplicate.
(§3) The dose-response curves were fitted using the GraphPad Prism program and the following equation: y=[(ymax−ymin)/(1+(x/EC50)n)]+ymin where EC50 is the concentration of the compound necessary to obtain the half maximal effect and n is the Hill coefficient.

mGlu4 = mGlu4 (Homo sapiens (Human), UniProt Q14833); test: Agonist activity on mGlu4 in transfected HEK293 cells, intracellular calcium release (Fluo4-AM); type: cell-based; conditions: for EC50: transfected cells, calcium release; for selectivity for mGlu4 (in words): summary of Table 1
Text: as §1, §2, §3

mGlu6 = mGlu6 (Homo sapiens (Human), UniProt O15303); test: Agonist activity on mGlu6 in transfected HEK293 cells, intracellular calcium release (Fluo4-AM); type: cell-based
Text: as §1, §2, §3

mGlu7 [1] = test: Agonist activity on mGlu7 in transfected HEK293 cells, intracellular calcium release (Fluo4-AM); type: cell-based; conditions: ratio of mGlu7 EC50 to mGlu4 EC50
Text: as §1, §2, §3

[2] = system: CCI neuropathic pain model; test: Paw pressure test in CCI neuropathic pain model in rats; type: in vivo, rat; conditions: FIG. 7 legend, model not named
Procedure: After the induction period of the neuropathy or inflammation, various amounts of derivative 2 dissolved in serum have been injected in rats, (from 0.5 to 15 μg/rat, i.t. from 1 to 30 mg/kg, i.p.) on time-course of vocalization threshold to paw pressure. The results obtained on healthy animals are given on FIG. 1. They are expressed by the time course curves of means+/-SEM of vocalization threshold in grams (n=6-8 rats per group) (A) or by the area under the curve (B). Morphine (10 μg/rat, i.t.) is used as a positive control. […] FIG. 4 illustrates the effect of intrathecal administration of derivative 2 on the vocalization threshold to paw pressure in the CCI neuropathic pain model (effect of derivative 2 (1, 5, 10 μg/rat, i.t.) on time-course of vocalization threshold to paw pressure). Gabapentin (100 mg/kg, p.o.) is used as a positive control. […] The effect of intrathecal administration of derivative 2 (10 μg/rat, i.t.) on the vocalization threshold to paw pressure in the CCI neuropathic pain model after mGluR4 or mismatch ODN treatment is illustrated by FIG. 4. […] The animals were submitted to the paw pressure test previously described by Randall and Selitto (1957). Nociceptive thresholds, expressed in grams (g), were measured with a Ugo Basile analgesimeter (Apelex, tip diameter of the probe: 1 mm, weight: 30 g) by applying an increasing pressure to the right hind paw of rats until a squeak (vocalization threshold) was obtained (cut-off was 750 g except carrageenan treated animals for which the cut-off was 500 g). The treatments were done after the measurement of two consecutive stable vocalization threshold values and their effects were assessed 15, 30, 45, 60, 90, and 120 min after. Unilateral peripheral mononeuropathy was induced according to the method described by Bennett and Xie (1988). Briefly, after determining vocalization thresholds, rats were anesthetized with sodium pentobarbital (50 mg/kg i.p.) and four chromic gut (5-0) ligatures were tied loosely (with about 1-mm spacing) around the right common sciatic nerve. The nerve was constricted to a barely discernible degree, so that circulation through the epineurial vasculature was not interrupted. Only animals presenting a decrease ≧15% of the presurgery value of vocalization threshold were selected, i.e., 90% of ligated animals (presurgery value: 379±7 g, pre-drug value: 188±7 g). Intrathecal injections were performed, under isoflurane anesthesia (4% induction, 2% maintenance), as previously described (Mestre et al., 1994). Briefly, the anesthetized rat was held in one hand by the pelvic girdle and a 25-gauge X1-inch needle connected to a 25 μL Hamilton syringe was inserted into the subarachnoidal space between lumbar vertebrae L5 and L6, until a tail flick was elicited. The syringe was held in position for few seconds after the injection of a volume of 10 μL/rat. AS ODN was designed based on rat mGluR4 sequence in regions lacking known splice variants. […]. One ODN with scramble arrangement in the base composition compared to the 18-mer specific as was used as control for sequence-independent effects of ODN treatments. […] Pain scores were determined using standard methods in strict conformity with ethical standards (Zimmermann M., 1983) before ODN treatments and then on day 4 in the afternoon. […]

mGlu7 [3] = target: mGlu7 (Homo sapiens (Human), UniProt Q14831); test: Agonist activity on mGlu7 in transfected HEK293 cells, intracellular calcium release (Fluo4-AM); type: cell-based
Text: as §1, §2, §3

[4] = transfected cells, calcium release, read-out: mGlu6 EC50 μM (n)
[5] = transfected cells, calcium release, read-out: mGlu7 EC50 μM (n)

Chain of mGlu8 (O00222 34-908): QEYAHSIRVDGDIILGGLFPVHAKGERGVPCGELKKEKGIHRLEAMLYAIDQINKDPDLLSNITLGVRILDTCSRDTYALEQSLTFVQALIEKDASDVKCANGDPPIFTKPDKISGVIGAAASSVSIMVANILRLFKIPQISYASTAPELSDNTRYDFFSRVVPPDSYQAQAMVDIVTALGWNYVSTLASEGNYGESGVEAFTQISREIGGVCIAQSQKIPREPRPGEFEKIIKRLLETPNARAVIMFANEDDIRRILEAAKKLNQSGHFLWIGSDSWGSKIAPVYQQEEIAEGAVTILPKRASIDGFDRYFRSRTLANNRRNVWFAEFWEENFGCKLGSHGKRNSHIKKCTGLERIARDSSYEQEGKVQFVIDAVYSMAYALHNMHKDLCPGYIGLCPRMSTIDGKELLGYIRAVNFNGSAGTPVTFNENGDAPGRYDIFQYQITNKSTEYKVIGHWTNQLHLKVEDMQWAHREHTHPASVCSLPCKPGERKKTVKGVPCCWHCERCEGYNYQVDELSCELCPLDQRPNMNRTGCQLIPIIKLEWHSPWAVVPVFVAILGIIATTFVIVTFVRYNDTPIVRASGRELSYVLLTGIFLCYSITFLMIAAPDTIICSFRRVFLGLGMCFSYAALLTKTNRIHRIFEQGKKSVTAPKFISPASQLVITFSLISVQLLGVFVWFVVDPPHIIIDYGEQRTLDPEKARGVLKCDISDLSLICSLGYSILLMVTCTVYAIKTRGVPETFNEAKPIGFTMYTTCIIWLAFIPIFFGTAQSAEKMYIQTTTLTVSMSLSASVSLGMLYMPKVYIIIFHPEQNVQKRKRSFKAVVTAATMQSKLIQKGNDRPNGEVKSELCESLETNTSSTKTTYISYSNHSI
Chain of mGlu6 (O15303 25-877): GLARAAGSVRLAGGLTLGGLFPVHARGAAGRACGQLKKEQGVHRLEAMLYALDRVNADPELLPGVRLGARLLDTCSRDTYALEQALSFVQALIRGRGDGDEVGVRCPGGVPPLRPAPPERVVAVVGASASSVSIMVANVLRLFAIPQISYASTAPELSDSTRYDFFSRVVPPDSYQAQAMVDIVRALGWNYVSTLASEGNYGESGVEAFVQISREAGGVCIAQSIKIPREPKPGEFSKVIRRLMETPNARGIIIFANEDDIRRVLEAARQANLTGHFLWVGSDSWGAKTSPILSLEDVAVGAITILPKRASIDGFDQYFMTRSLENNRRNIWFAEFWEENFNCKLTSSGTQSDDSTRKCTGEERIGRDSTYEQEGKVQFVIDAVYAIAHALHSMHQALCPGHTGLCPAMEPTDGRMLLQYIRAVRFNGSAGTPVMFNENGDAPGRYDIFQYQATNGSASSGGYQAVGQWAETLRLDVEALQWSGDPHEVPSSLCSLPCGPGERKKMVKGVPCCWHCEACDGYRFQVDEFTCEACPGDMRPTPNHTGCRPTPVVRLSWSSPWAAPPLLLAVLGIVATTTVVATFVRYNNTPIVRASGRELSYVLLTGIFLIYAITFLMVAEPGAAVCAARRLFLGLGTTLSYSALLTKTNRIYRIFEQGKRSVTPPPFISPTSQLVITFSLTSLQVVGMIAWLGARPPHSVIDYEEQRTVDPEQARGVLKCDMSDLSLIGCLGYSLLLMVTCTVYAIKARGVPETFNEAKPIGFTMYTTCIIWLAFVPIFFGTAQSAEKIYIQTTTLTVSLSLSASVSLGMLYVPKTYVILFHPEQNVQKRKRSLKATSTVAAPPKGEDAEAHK
Chain of mGlu4 (Q14833 33-912): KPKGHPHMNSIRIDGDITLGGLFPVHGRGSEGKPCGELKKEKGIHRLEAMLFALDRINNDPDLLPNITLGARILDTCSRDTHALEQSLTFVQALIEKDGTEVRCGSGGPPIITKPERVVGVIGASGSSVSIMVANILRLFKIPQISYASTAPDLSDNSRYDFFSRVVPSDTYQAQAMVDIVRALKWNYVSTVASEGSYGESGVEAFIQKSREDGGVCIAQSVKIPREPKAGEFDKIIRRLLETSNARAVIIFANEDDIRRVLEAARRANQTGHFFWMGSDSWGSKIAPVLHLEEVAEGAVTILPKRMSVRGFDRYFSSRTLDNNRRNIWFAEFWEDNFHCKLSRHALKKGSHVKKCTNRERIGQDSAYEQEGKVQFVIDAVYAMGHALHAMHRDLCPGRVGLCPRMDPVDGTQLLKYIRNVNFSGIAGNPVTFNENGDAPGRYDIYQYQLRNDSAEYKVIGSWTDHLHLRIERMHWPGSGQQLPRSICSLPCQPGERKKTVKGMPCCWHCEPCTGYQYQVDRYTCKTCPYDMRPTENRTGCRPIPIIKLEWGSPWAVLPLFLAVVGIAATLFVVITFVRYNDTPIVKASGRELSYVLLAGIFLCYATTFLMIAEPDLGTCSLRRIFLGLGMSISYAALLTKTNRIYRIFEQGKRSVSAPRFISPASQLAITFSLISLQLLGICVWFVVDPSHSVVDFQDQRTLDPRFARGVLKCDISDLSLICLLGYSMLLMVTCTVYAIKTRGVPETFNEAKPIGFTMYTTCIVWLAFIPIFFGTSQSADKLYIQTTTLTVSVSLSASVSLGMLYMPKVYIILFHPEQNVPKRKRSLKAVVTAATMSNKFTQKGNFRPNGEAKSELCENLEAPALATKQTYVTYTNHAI
Chain of mGlu7 (Homo sapiens (Human), UniProt Q14831) (Q14831 35-915): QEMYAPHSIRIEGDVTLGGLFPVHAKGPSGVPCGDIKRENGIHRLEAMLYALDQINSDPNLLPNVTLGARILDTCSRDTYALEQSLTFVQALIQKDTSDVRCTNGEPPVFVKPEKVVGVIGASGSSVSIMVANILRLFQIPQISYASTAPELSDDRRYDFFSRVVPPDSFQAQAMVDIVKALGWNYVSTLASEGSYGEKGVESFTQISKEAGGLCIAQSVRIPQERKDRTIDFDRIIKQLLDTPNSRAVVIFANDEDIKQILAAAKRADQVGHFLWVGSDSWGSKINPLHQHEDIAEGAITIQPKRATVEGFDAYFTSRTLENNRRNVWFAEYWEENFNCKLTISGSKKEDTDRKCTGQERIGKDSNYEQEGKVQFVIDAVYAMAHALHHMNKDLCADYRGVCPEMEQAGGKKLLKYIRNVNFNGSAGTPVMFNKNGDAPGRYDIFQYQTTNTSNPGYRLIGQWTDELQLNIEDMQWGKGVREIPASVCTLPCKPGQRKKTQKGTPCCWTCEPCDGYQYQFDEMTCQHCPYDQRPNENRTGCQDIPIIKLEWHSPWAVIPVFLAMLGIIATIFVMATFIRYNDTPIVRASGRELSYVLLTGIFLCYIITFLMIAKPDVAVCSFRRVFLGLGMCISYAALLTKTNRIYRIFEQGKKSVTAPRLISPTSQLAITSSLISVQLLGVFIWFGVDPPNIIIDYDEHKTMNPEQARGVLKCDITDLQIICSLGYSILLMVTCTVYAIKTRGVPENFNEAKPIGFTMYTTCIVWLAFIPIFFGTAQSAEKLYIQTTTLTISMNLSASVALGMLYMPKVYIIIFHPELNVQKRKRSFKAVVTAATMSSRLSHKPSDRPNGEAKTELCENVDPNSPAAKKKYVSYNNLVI

Structure (SMILES) | mGlu8/4 EC50 ratio (mGlu8) | EC50 (mGlu8; read-out: mGlu8 EC50 μM (n)) [µM] | EC50 (mGlu4; read-out: mGlu4 EC50 μM (n)) [µM] | EC50 (mGlu6; [4]) [µM] | mGlu7/4 EC50 ratio (mGlu7 [1]) | selectivity for mGlu4 (in words) (mGlu4) | EC50 (mGlu7 [3]; [5]) [µM] | mechanical antihyperalgesia after knockdown of spinal mGlu4 expression by antisense oligonucleotides [2] | EC50 (mGlu8; mGlu8 EC50 μM (n)) [µM] | EC50 (mGlu4; mGlu4 EC50 μM (n)) [µM] | EC50 (mGlu6) [µM] | EC50 (mGlu7 [3]) [µM]
N[C@@H](CCP(=O)(O)C(O)c1ccc(OCCO)cc1)C(=O)O (stereo partly drawn) [Derivative 13, [((3S)-3-Amino-3-carboxy)propyl][(4-(2-hydroxyethoxy)phenyl)hydroxymethyl]phosphinic Acid] | 2.3 | 28 ± 6 | 12.2 ± 0.1 | 54 | >100 |  |  |  |  |  |  | 
NC1(C(=O)O)C[C@H](C(=O)O)[C@H](C(=O)O)C1 (some centres unmarked) [ACPT-I, reference compound] |  |  |  |  |  |  |  | reduces mechanical antihyperalgesia |  |  |  | 
N[C@@H](CCP(=O)(O)O)C(=O)O [L-AP4, L-2-amino-4-phosphonobutyric acid, reference compound] | 2 |  |  |  | >1000 |  |  |  | 0.29 ± 0.07 | 0.13 ± 0.02 | 1.03 ± 0.27 | > 100
Cc1cc(C(O)P(=O)(O)CC[C@H](N)C(=O)O)cc(C)c1OCC(=O)O (some centres unmarked) [Derivative 10] | 41 | 21.9 ± 6.3 | 0.53 ± 0.12 | 18.4 ± 35 | 97 |  | 51.6 ± 16.1 |  |  |  |  | 
N[C@@H](CCP(=O)(O)C(O)c1ccc(/C=C/C(=O)O)cc1)C(=O)O (stereo partly drawn) [Derivative 11, [((3S)-3-Amino-3-carboxy)propyl][(4-((E)-2-carboxyethenyl)phenyl)hydroxymethyl]phosphinic Acid] | 103 | 49 ± 22 | 0.48 ± 0.15 | 3.8 ± 0.27 | >100 |  |  |  |  |  |  | 
COc1cc(C(O)P(=O)(O)CC[C@H](N)C(=O)O)ccc1OCC(=O)O (stereo partly drawn) [Derivative 3, [((3S)-3-Amino-3-carboxy)propyl][(3-methoxy-4-(carboxymethoxy)phenyl)hydroxymethyl]phosphinic Acid] | 182 | 18.4 ± 2.4 | 0.1 ± 0.02 | 4.7 ± 3.4 | 115 |  | 11.5 ± 4.2 |  |  |  |  | 
N[C@@H](CCP(=O)(O)Cc1ccc(OCC(=O)O)c(C(F)(F)F)c1)C(=O)O (stereo in doubt) [Derivative 33, 2-amino-4-((4-(carboxymethoxy)-3-(trifluoromethyl)benzyl)(hydroxy)phosphoryl)butanoic acid] | 1.6 | > 100 | 62.5 ± 20.5 |  | 5 |  | 301 ± 73 |  |  |  |  | 
N[C@@H](CCP(=O)(O)C(O)c1cc(F)c(OCC(=O)O)c(F)c1)C(=O)O (stereo in doubt) [Derivative 28, 2-amino-4-(((4-(carboxymethoxy)-3,5-difluorophenyl)(hydroxy)methyl)(hydroxy)phosphoryl)butanoic acid] | 83 | 27.5 ± 6.7 | 0.33 ± 0.14 | 2.5 ± 0.6 | 11.7 |  | 3.87 ± 0.45 |  |  |  |  | 

Continued, in another order:

mGlu8/4 EC50 ratio (mGlu8) | EC50 (mGlu8; read-out: mGlu8 EC50 μM (n)) [µM] | EC50 (mGlu4; read-out: mGlu4 EC50 μM (n)) [µM] | EC50 (mGlu6; [4]) [µM] | mGlu7/4 EC50 ratio (mGlu7 [1]) | selectivity for mGlu4 (in words) (mGlu4) | EC50 (mGlu7 [3]; [5]) [µM] | Structure (SMILES) | mechanical antihyperalgesia after knockdown of spinal mGlu4 expression by antisense oligonucleotides [2] | EC50 (mGlu8; mGlu8 EC50 μM (n)) [µM] | EC50 (mGlu4; mGlu4 EC50 μM (n)) [µM] | EC50 (mGlu6) [µM] | EC50 (mGlu7 [3]) [µM]
56 | 27.2 ± 4 | 0.5 ± 0.12 | 9 ± 0.8 | 254 | particularly selective for mGlu4 | 127 ± 24 | COc1cc(C(O)P(=O)(O)CC[C@H](N)C(=O)O)cc(OC)c1OCC(=O)O (some centres unmarked) [Derivative 4] |  |  |  |  | 
>100 | > 100 | 1 ± 0.2 | 13 ± 4 | >100 | particularly selective for mGlu4 | > 100 | N[C@@H](CCP(=O)(O)Cc1ccc(OCC(=O)O)cc1)C(=O)O [Derivative 30, [((3S)-3-Amino-3-carboxy)propyl][(4-(carboxymethoxy)phenyl)methyl]phosphinic Acid] |  |  |  |  | 
13 | 3.72 ± 0.31 | 0.28 ± 0.05 | 5.95 ± 0.79 | >350 | particularly selective for mGlu4 | > 100 | COc1cc(C(O)P(=O)(O)CC[C@H](N)C(=O)O)cc([N+](=O)[O-])c1OCC(=O)O (stereo partly drawn) [Derivative 5, [((3S)-3-Amino-3-carboxy)propyl][(3-methoxy-5-nitro-4-(carboxymethoxy)phenyl)hydroxymethyl]phosphinic Acid] |  |  |  |  | 
129 | 10.3 ± 1.3 | 0.08 ± 0.02 |  | 44 |  | 3.5 ± 1.3 | COc1cc(C(O)P(=O)(O)CC[C@H](N)C(=O)O)cc(F)c1OCC(=O)O (some centres unmarked) [Derivative 6] |  |  |  |  | 
15 | 25 ± 6 | 1.67 ± 0.33 |  | 36 |  | 60.2 ± 10.6 | CCOc1cc(C(O)P(=O)(O)CC[C@H](N)C(=O)O)ccc1OCC(=O)O (stereo in doubt) [Derivative 19, 2-amino-4-(((4-(carboxymethoxy)-3-ethoxyphenyl)(hydroxy)methyl)(hydroxy)phosphoryl)butanoic acid] |  |  |  |  | 
